{"source": "patent US5466675A", "about": "“Immunological activity of rhamnolipids” (priority 1992, dated 1995)", "key": {"alpha-chymotrypsin": {"test_system": "alpha-chymotrypsin", "test": "enzyme inhibition, alpha-chymotrypsin", "assay_type": "biochemical", "method": "(§1) Rhamnolipid (II) was tested in vitro against a wide array of enzymes.\n(§2) All enzyme assays were done spectrophotometrically by computer linked automatic microplate reader (Labsystem Multiskan) and Diode Array spectrophotometer (Perkin Elmer)."}, "Staphylococcus aureus": {"test_system": "Staphylococcus aureus", "test": "minimum inhibitory concentration, Staphylococcus aureus", "assay_type": "cell-based", "settings": "in tested medium", "text": "(§3) The Minimum inhibitory concentration (MIC) of Rhamnolipid II for Candida albicans, Escherichia coli, Staphylococcus aureus and Pseudomonas aeruginosa was >0.5% in tested medium."}, "mice C57B1/6 [1]": {"test_system": "mice C57B1/6", "test": "range-finding study phase (single intravenous dose)"}, "[2]": {"test": "range-finding study phase (single intravenous dose)", "settings": "mouse, in vivo, iv"}, "Escherichia coli": {"test_system": "Escherichia coli", "test": "minimum inhibitory concentration, Escherichia coli", "assay_type": "cell-based", "settings": "in tested medium", "text": "as §3"}, "beta-galactosidase": {"test_system": "beta-galactosidase", "test": "enzyme inhibition, beta-galactosidase", "assay_type": "biochemical", "method": "as §1\nThe following enzymes were inhibited at the various rhamnolipid concentrations indicated:\nas §2"}, "Pseudomonas aeruginosa": {"test_system": "Pseudomonas aeruginosa", "test": "minimum inhibitory concentration, Pseudomonas aeruginosa", "assay_type": "cell-based", "settings": "in tested medium", "text": "as §3"}, "[3]": {"test_system": "Dopamine D2A (human recombinant)", "test": "[3H] spiperone dopamine D2A receptor inhibition", "assay_type": "binding", "settings": "100 uM"}, "patients": {"test_system": "patients", "settings": "human, in vivo", "text": "Blood samples for lab tests were taken from all twelve patients on the first and last day of treatment."}, "P59fyn Tyrosine Kinase": {"target": "P59fyn Tyrosine Kinase (Homo sapiens, UniProt P06241)", "sequence (P06241 whole entry)": "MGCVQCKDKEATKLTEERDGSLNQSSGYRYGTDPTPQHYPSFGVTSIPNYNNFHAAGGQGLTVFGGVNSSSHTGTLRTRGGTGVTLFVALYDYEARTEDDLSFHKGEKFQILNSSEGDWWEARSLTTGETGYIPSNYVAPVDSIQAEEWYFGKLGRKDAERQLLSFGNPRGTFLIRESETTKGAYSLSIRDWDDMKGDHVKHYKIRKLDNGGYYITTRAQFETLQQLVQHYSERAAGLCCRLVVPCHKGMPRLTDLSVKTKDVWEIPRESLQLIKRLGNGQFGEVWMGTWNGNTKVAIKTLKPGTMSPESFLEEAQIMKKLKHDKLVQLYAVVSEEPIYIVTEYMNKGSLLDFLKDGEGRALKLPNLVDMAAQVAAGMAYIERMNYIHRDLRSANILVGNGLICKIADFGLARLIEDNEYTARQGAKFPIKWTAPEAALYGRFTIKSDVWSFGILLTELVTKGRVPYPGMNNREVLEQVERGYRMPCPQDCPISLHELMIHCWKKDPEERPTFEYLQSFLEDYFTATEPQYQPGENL", "test": "enzyme inhibition, p59fyn tyrosine kinase", "assay_type": "biochemical", "settings": "0.5% DMSO", "method": "as §1, §2"}, "in vitro": {"test": "in vitro", "settings": "monkey, vero cells"}, "polio I virus": {"test_system": "polio I virus", "assay_type": "cell-based", "settings": "concentrations ≤100 ug/ml"}, "[4]": {"test_system": "A431 human epidermal cells", "settings": "in particular in the presence of PMA"}, "[5]": {"test_system": "sheep red blood cell (SRBC) hemagglutination", "test": "immunostimulation (humoral): sheep red blood cell (SRBC) hemagglutination", "assay_type": "in vivo, mouse (ICR, female)", "method": "Groups of 6 mice were sensitized by the IV injection of 0.2 ml of a 2% SRBC suspension. On the 9th day following sensitization, blood samples were withdrawn from the orbital sinus and equal parts of complement inactivated serum from the group of 6 mice were pooled to yield a single 0.25 ml sample. Serial 2-fold dilutions were then carried out 10 times in the presence of added complement. […] Serum titers of less than 16 or greater than 128 are considered significant and indicate possible immunosuppressant and immunostimulant activity, respectively.\nFor immunostimulant activity, test substance or vehicle was administered i.p. to groups of mice for 3 consecutive days, and sensitized to SRBCs 2 hours after the third (last) injection. For immunosuppressant activity, test substance or vehicle was administered i.p. to groups of mice for 3 consecutive days beginning 2 hours after sensitization to SRBCs."}, "Neurodermitis": {"test_system": "Neurodermitis", "test": "clinical treatment of neurodermitis", "assay_type": "in vivo, human", "settings": "twice a day; occlusions up to 24 hours", "method": "Two patients with Neurodermitis were treated at the beginning of 1992. Rhamnolipid II was applied on affected regions twice a day; occlusions were applied as well (up to 24 hours).\nThe treatment and monitoring of patients was, again, a \"double blind\" experiment. Other affected regions where corticosteroids were applied were used for comparison."}, "blood count in mouse": {"test_system": "blood count in mouse", "settings": "in vivo", "text": "Activity of Di-rhamnolipid on Blood Count in Mouse\nBlood count after application of di-rhamnolipid"}, "semliki forest virus": {"test_system": "semliki forest virus", "test": "effect on viruses, semliki forest", "assay_type": "cell-based", "settings": "concentrations ≤100 ug/ml", "method": "Tests were performed according to D. A. Vanden Berghe et al., Inst. Pasteur 84,101 (1986). Rhamnolipid (II) was toxic for VERO cells in concentrations ≥200 ug/ml, and cytotoxic on MT4 cells in concentrations >169.40 ug/ml."}, "mice C57B1/6 [6]": {"test_system": "mice C57B1/6", "test": "range-finding study phase (five doses per five days, one dose per day)"}, "seborhoic dermatitis": {"test_system": "seborhoic dermatitis", "test": "clinical treatment of seborhoic dermatitis", "assay_type": "in vivo, human", "settings": "one patient", "method": "17 patients, 11 men and 6 women, were treated with rhamnolipid (II). Among these, 12 patients were suffering from Psoriasis, 2 from Neurodermitis, 1 from Lichen ruber planus, 1 from Serborhoic dermatitis and one from Dermatitis circumscripta unilocularis eczematoides."}, "[7]": {"test_system": "measles edmonston A virus", "test": "effect on viruses, measles edmonston A", "assay_type": "cell-based", "settings": "concentrations ≤100 ug/ml"}, "[8]": {"settings": "fourth day after application, IV"}, "[9]": {"settings": "five doses per five days, intraperitoneal"}}}
{"smiles": "CCCCCCCC(CC(=O)O)OC(=O)CC(CCCCCCC)O[C@@H]1O[C@@H](C)[C@H](O)[C@@H](O)[C@H]1O[C@@H]1O[C@@H](C)[C@H](O)[C@@H](O)[C@H]1O", "note": "(stereo partly drawn) [Rhamnolipid (II), (alpha-L-rhamnopyranosyl-(1,2)alpha-L-rhamnopyranosyl)-3-hydroxydecanoyl-3-hydroxydecanoic acid]", "values": [{"measurement": "effect on enzyme", "setting": "alpha-chymotrypsin", "result": "no effect"}, {"measurement": "Minimum inhibitory concentration (MIC)", "setting": "Staphylococcus aureus", "result": "> 0.5", "unit": "%"}, {"measurement": "single dose toxicity", "setting": "mice C57B1/6 [1]; IV application", "result": 7.5, "unit": "mg/kg"}, {"measurement": "lymphocytes", "setting": "mice C57B1/6 [1]; [8]", "result": "significant decrease"}, {"measurement": "neutrophils", "setting": "mice C57B1/6 [1]; [8]", "result": "significant increase"}, {"measurement": "behavior and appearance of treated mice", "setting": "mice C57B1/6 [1]; observation period, IV single dose", "result": "no changes"}, {"measurement": "lower bracket dose (LBD)", "setting": "mice C57B1/6 [1]; single intravenous dose", "result": 67.5, "unit": "mg/kg"}, {"measurement": "upper bracket dose (UBD)", "setting": "mice C57B1/6 [1]; single intravenous dose", "result": 127.5, "unit": "mg/kg"}, {"measurement": "LD50", "setting": "[2]", "result": 105, "unit": "mg/kg"}, {"measurement": "Minimum inhibitory concentration (MIC)", "setting": "Escherichia coli", "result": "> 0.5", "unit": "%"}, {"measurement": "concentration at which the enzyme was inhibited", "setting": "beta-galactosidase", "result": 100, "unit": "µg/mL"}, {"measurement": "Minimum inhibitory concentration (MIC)", "setting": "Pseudomonas aeruginosa", "result": "> 0.5", "unit": "%"}, {"measurement": "inhibition of the dopamine D2A receptor", "setting": "[3]", "result": 53, "unit": "%"}, {"measurement": "lab tests of blood samples", "setting": "patients", "result": "no altered results of the tests were observed"}, {"measurement": "inhibition at 0.01 µM", "setting": "P59fyn Tyrosine Kinase; 0.01 μM", "result": 1, "unit": "%"}, {"measurement": "inhibition at 1 µM", "setting": "P59fyn Tyrosine Kinase; 1 μM", "result": 0, "unit": "%"}, {"measurement": "inhibition at 100 µM", "setting": "P59fyn Tyrosine Kinase; 100 μM", "result": 15, "unit": "%"}, {"measurement": "MCC", "setting": "in vitro", "result": "≥ 200", "unit": "µg/mL"}, {"measurement": "antiviral activity", "setting": "polio I virus", "result": "no activity"}, {"measurement": "A431 cell growth", "setting": "[4]", "result": "suppressed A431 cell growth"}, {"measurement": "SERUM TITER (Reciprocal Serum Dilution)", "setting": "[5]; IP 0.1 × 3 mg/kg", "result": 64}, {"measurement": "SERUM TITER (Reciprocal Serum Dilution)", "setting": "[5]; IP 1 × 3 mg/kg", "result": 64}, {"measurement": "SERUM TITER (Reciprocal Serum Dilution)", "setting": "[5]; IP 10 × 3 mg/kg", "result": 128}, {"measurement": "SERUM TITER (Reciprocal Serum Dilution)", "setting": "[5]; IP 100 × 3 mg/kg", "result": 8}, {"measurement": "died on Day 3", "setting": "[5]; IP 100 × 3 mg/kg", "result": "1/6"}, {"measurement": "improvements versus corticosteroids", "setting": "Neurodermitis", "result": "observed rapidly, faster than in cases when corticosteroids were applied"}, {"measurement": "occurrence of relapses versus local corticosteroids", "setting": "Neurodermitis", "result": "a bit later"}, {"measurement": "Lymphocyts", "setting": "blood count in mouse", "result": "53.40 +/- 11.14"}, {"measurement": "lymphocytes", "setting": "blood count in mouse", "result": "56.50 +/- 12.02"}, {"measurement": "nRBC", "setting": "blood count in mouse", "result": 0}, {"measurement": "change in lymphocytes", "setting": "blood count in mouse; iv, 7.5 mg/kg", "result": "decreased"}, {"measurement": "change in neutrophils", "setting": "blood count in mouse; iv, 7.5 mg/kg", "result": "significantly increased"}, {"measurement": "antiviral activity", "setting": "semliki forest virus", "result": "no activity"}, {"measurement": "lower bracket dose (LBD)", "setting": "mice C57B1/6 [6]; [9]", "result": 45, "unit": "mg/kg"}, {"measurement": "single dose toxicity", "setting": "mice C57B1/6 [6]; [9]", "result": 5, "unit": "mg/kg"}, {"measurement": "upper bracket dose (UBD)", "setting": "mice C57B1/6 [6]; [9]", "result": 125, "unit": "mg/kg"}, {"measurement": "basophiles", "setting": "mice C57B1/6 [6]; fourth day after application", "result": "significant increase"}, {"measurement": "eosinophiles", "setting": "mice C57B1/6 [6]; fourth day after application", "result": "significant increase"}, {"measurement": "lymphocytes", "setting": "mice C57B1/6 [6]; fourth day after application", "result": "significant decrease"}, {"measurement": "neutrophils", "setting": "mice C57B1/6 [6]; fourth day after application", "result": "significant increase"}, {"measurement": "behavior and appearance of treated mice", "setting": "mice C57B1/6 [6]; observation period", "result": "no changes"}, {"measurement": "cure", "setting": "seborhoic dermatitis", "result": "completely cured"}, {"measurement": "antiviral activity", "setting": "[7]", "result": "no activity"}]}
